Results: patent US20220348558A1, “INHIBITORS OF ENCEPHALITIC ALPHAVIRUSES” (priority 2019, published 2022)

What was measured:
VEEV TC83 = test: microbe, parasite or virus in culture; type: cell-based; settings: Venezuelan equine encephalitis virus, Vero 76, 48 h, read-out: VEEV TC83 EC50 nM
WEEV California = test: microbe, parasite or virus in culture; type: cell-based; settings: Western equine encephalitis virus, Vero 76, 48 h, read-out: WEEV California EC50 nM

`COc1ccc(-n2c([C@H]3CCCN3)nc3ccc([N+](=O)[O-])cc3c2=O)cc1` [Example 9, (R)-3-(4-methoxyphenyl)-6-nitro-2-(pyrrolidin-2-yl) quinazolin-4 (3H)-one] showed an EC50 (VEEV TC83) of 1 to 50 nM and an EC50 (WEEV California) of 1 to 50 nM.

`COc1c(F)cc(-n2c(C3C[C@H](F)CN3)nc3c(-c4cc(C)nc(C)c4)cc(C#N)cc3c2=O)cc1F` (stereo partly drawn) [Example 160, 3-(3,5-Difluoro-4-methoxyphenyl)-8-(2,6-dimethylpyridin-4-yl)-2-((4S)-4-fluoropyrrolidin-2-yl)-4-oxo-3,4-dihydroquinazoline-6-carbonitrile] gave an EC50 (VEEV TC83) of 51 to 150 nM and an EC50 (WEEV California) of 51 to 150 nM.

Work on `COc1ccc(-n2c([C@H]3CCCN3)nc3ccc([N+](=O)[O-])cc3c2=O)c(F)c1` [Example 25, (R)-3-(2-fluoro-4-methoxyphenyl)-6-nitro-2-(pyrrolidin-2-yl) quinazolin-4 (3H)-one] yielded an EC50 (VEEV TC83) of 51 to 150 nM and an EC50 (WEEV California) of 151 to 500 nM.

`COc1ccc(-n2c([C@H]3CCCN3)nc3ccc([N+](=O)[O-])cc3c2=O)cc1F` [Example 24, (R)-3-(3-fluoro-4-methoxyphenyl)-6-nitro-2-(pyrrolidin-2-yl) quinazolin-4 (3H)-one] was tested, and the EC50 (VEEV TC83) was 1 to 50 nM and the EC50 (WEEV California) was 1 to 50 nM.

`O=c1c2cc([N+](=O)[O-])ccc2nc([C@H]2CCCN2)n1-c1ccccc1` [Example 2, (R)-6-nitro-3-phenyl-2-(pyrrolidin-2-yl) quinazolin-4 (3H)-one] showed an EC50 (VEEV TC83) of 1 to 50 nM and an EC50 (WEEV California) of 51 to 150 nM.

`C=C(C)c1ccc(-c2cc(C#N)cc3c(=O)n(-c4cc(F)c(OC)c(F)c4)c(C4CCCN4)nc23)cc1` (centres unmarked) [Example 172, 3-(3,5-difluoro-4-methoxyphenyl)-4-oxo-8-(4-(prop-1-en-2-yl)phenyl)-2-(pyrrolidin-2-yl)-3,4-dihydroquinazoline-6-carbonitrile] showed an EC50 (VEEV TC83) of 51 to 150 nM and an EC50 (WEEV California) of 51 to 150 nM.

In the case of `CNC(C)c1nc2ccc([N+](=O)[O-])cc2c(=O)n1-c1ccc(OC)cc1` (centres unmarked) [Example 205, 3-(4-methoxyphenyl)-2-(1-(methylamino)ethyl)-6-nitroquinazolin-4 (3H)-one], the EC50 (VEEV TC83) is reported as 51 to 150 nM and the EC50 (WEEV California) is reported as 51 to 150 nM.

For `COc1ccc(-n2c([C@H]3CCCN3)nc3c(F)cc(C#N)cc3c2=O)cc1` [Example 78, (R)-8-fluoro-3-(4-methoxyphenyl)-4-oxo-2-(pyrrolidin-2-yl)-3,4-dihydroquinazoline-6-carbonitrile], the EC50 (VEEV TC83) was 51 to 150 nM and the EC50 (WEEV California) was 51 to 150 nM.

With `COc1c(F)cc(-n2c(C34CC(CN3)C4)nc3c(-c4cnc(C)c(C)c4)cc(C#N)cc3c2=O)cc1F` [Example 176, 2-(2-azabicyclo[2.1.1]hexan-1-yl)-3-(3,5-difluoro-4-methoxyphenyl)-8-(5,6-dimethylpyridin-3-yl)-4-oxo-3,4-dihydroquinazoline-6-carbonitrile] the EC50 (VEEV TC83) was 1 to 50 nM and the EC50 (WEEV California) was 1 to 50 nM.

`COc1ccc(-n2c([C@@H]3C[C@@H]4CCCC[C@@H]4N3)nc3c(-c4ccc(C)nc4)cc(C#N)cc3c2=O)cc1F` [Example 139, 3-(3-fluoro-4-methoxyphenyl)-8-(6-methylpyridin-3-yl)-2-((2S,3aS,7aS)-octahydro-1H-indol-2-yl)-4-oxo-3,4-dihydroquinazoline-6-carbonitrile] gave an EC50 (VEEV TC83) of 1 to 50 nM and an EC50 (WEEV California) of 51 to 150 nM.

Work on `COc1ccc(-n2c([C@H]3CCCN3)nc3c(C4CC4)cc([N+](=O)[O-])cc3c2=O)cc1` [Example 95, (R)-8-cyclopropyl-3-(4-methoxyphenyl)-6-nitro-2-(pyrrolidin-2-yl) quinazolin-4 (3H)-one] yielded an EC50 (VEEV TC83) of 1 to 50 nM and an EC50 (WEEV California) of 51 to 150 nM.

`COc1ccc(-n2c(-c3cncn3C)nc3c(-c4ccc(C)nc4)cc(C#N)cc3c2=O)cc1F` [Example 201, 3-(3-fluoro-4-methoxyphenyl)-2-(1-methyl-1H-imidazol-5-yl)-8-(6-methylpyridin-3-yl)-4-oxo-3,4-dihydroquinazoline-6-carbonitrile] was tested, and the EC50 (VEEV TC83) was over 1000 nM and the EC50 (WEEV California) was over 1000 nM.

`COc1ccc(-n2c(-c3cnco3)nc3c(-c4ccc(C)nc4)cc(C#N)cc3c2=O)cc1F` [Example 198, 3-(3-fluoro-4-methoxyphenyl)-8-(6-methylpyridin-3-yl)-2-(oxazol-5-yl)-4-oxo-3,4-dihydroquinazoline-6-carbonitrile] showed an EC50 (VEEV TC83) of over 1000 nM and an EC50 (WEEV California) of over 1000 nM.

Molecule `COc1ccc(-n2c(C3CCCN3)nc3c(CCc4ccc(C)nc4)cc(C#N)cc3c2=O)cc1F` (centres unmarked) [Example 195, 3-(3-Fluoro-4-methoxyphenyl)-8-(2-(6-methylpyridin-3-yl)ethyl)-4-oxo-2-(pyrrolidin-2-yl)-3,4-dihydroquinazoline-6-carbonitrile] has an EC50 (VEEV TC83) of 51 to 150 nM and an EC50 (WEEV California) of 51 to 150 nM.

`COc1ccc(-n2c([C@H]3CCCN3)nc3c(-c4ccncc4)cc(C#N)cc3c2=O)cc1F` [Example 109, (R)-3-(3-fluoro-4-methoxyphenyl)-4-oxo-8-(pyridin-4-yl)-2-(pyrrolidin-2-yl)-3,4-dihydroquinazoline-6-carbonitrile] showed an EC50 (VEEV TC83) of 1 to 50 nM and an EC50 (WEEV California) of 1 to 50 nM.

In the case of `Cc1ccc(-c2cc(C#N)cc3c(=O)n(-c4ccc(N5CCOCC5)c(F)c4)c(C4CCCN4)nc23)cn1` (centres unmarked) [Example 146, 3-(3-Fluoro-4-morpholinophenyl)-8-(6-methylpyridin-3-yl)-4-oxo-2-(pyrrolidin-2-yl)-3,4-dihydroquinazoline-6-carbonitrile], the EC50 (VEEV TC83) is reported as 151 to 500 nM and the EC50 (WEEV California) is reported as 501 to 1000 nM.

`COc1ccc(-n2c([C@H]3CCCN3)nc3c(-c4ccncc4)cc([N+](=O)[O-])cc3c2=O)cc1F` [Example 82, (R)-3-(3-fluoro-4-methoxyphenyl)-6-nitro-8-(pyridin-4-yl)-2-(pyrrolidin-2-yl) quinazolin-4 (3H)-one] was tested, and the EC50 (VEEV TC83) was 1 to 50 nM and the EC50 (WEEV California) was 1 to 50 nM.

Molecule `COc1ccc(-n2c([C@@H]3CCCN3C)nc3ccc([N+](=O)[O-])cc3c2=O)cc1` [Example 13, (S)-3-(4-methoxyphenyl)-2-(1-methylpyrrolidin-2-yl)-6-nitroquinazolin-4 (3H)-one] has an EC50 (VEEV TC83) of 1 to 50 nM and an EC50 (WEEV California) of 51 to 150 nM.

`COc1ccc(-n2c(C3CCCN3)nc3c(-c4ccc(N5CCCC5)nc4)cc(C#N)cc3c2=O)cc1F` (centres unmarked) [Example 127, 3-(3-fluoro-4-methoxyphenyl)-4-oxo-8-(6-(pyrrolidin-1-yl)pyridin-3-yl)-2-(pyrrolidin-2-yl)-3,4-dihydroquinazoline-6-carbonitrile] showed an EC50 (VEEV TC83) of 1 to 50 nM and an EC50 (WEEV California) of 51 to 150 nM.

With `O=c1c2cc([N+](=O)[O-])ccc2nc([C@H]2CCCN2)n1-c1ccc(Cl)cc1` [Example 23, (R)-3-(4-chlorophenyl)-6-nitro-2-(pyrrolidin-2-yl) quinazolin-4 (3H)-one] the EC50 (VEEV TC83) was 1 to 50 nM and the EC50 (WEEV California) was 1 to 50 nM.

`Cc1ccc(-n2c([C@H]3CCCN3)nc3ccc([N+](=O)[O-])cc3c2=O)cc1` [Example 37, (R)-6-nitro-2-(pyrrolidin-2-yl)-3-(p-tolyl)quinazolin-4 (3H)-one] gave an EC50 (VEEV TC83) of 1 to 50 nM and an EC50 (WEEV California) of 501 to 1000 nM.

In the case of `COc1ccc(-n2c(C3CCCN3)nc3c(-c4ccnc(C)c4)cc(C#N)cc3c2=O)cc1F` (centres unmarked) [Example 138, 3-(3-fluoro-4-methoxyphenyl)-8-(2-methylpyridin-4-yl)-4-oxo-2-(pyrrolidin-2-yl)-3,4-dihydroquinazoline-6-carbonitrile], the EC50 (VEEV TC83) is reported as 1 to 50 nM and the EC50 (WEEV California) is reported as 1 to 50 nM.

In the case of `COc1c(F)cc(-n2c(C3CCCN3)nc3c(-c4cc(C)nc(C)c4)cc(C#N)cc3c2=O)cc1F` (centres unmarked) [Example 159, 3-(3,5-Difluoro-4-methoxyphenyl)-8-(2,6-dimethylpyridin-4-yl)-4-oxo-2-(pyrrolidin-2-yl)-3,4-dihydroquinazoline-6-carbonitrile], the EC50 (VEEV TC83) is reported as 51 to 150 nM and the EC50 (WEEV California) is reported as 51 to 150 nM.

`COc1ccc(-n2c([C@H]3CCCN3)nc3c(-c4cncnc4)cc([N+](=O)[O-])cc3c2=O)cc1` [Example 87, (R)-3-(4-methoxyphenyl)-6-nitro-8-(pyrimidin-5-yl)-2-(pyrrolidin-2-yl) quinazolin-4 (3H)-one] was tested, and the EC50 (VEEV TC83) was 1 to 50 nM and the EC50 (WEEV California) was 1 to 50 nM.

Molecule `COc1ccc(-n2c(C3CCCN3)nc3c(-c4ccc(NS(C)(=O)=O)cc4)cc(C#N)cc3c2=O)cc1F` (centres unmarked) [Example 157, N-(4-(6-Cyano-3-(3-fluoro-4-methoxyphenyl)-4-oxo-2-(pyrrolidin-2-yl)-3,4-dihydroquinazolin-8-yl)phenyl)methanesulfonamide] has an EC50 (VEEV TC83) of 51 to 150 nM and an EC50 (WEEV California) of 51 to 150 nM.

With `O=c1c2cc([N+](=O)[O-])ccc2nc(C2CCN2)n1-c1ccccc1` (centres unmarked) [Example 27, 2-(azetidin-2-yl)-6-nitro-3-phenylquinazolin-4 (3H)-one] the EC50 (VEEV TC83) was 501 to 1000 nM and the EC50 (WEEV California) was over 1000 nM.

In the case of `COc1ccc(-n2c(-c3nccn3C)nc3c(-c4ccc(C)nc4)cc(C#N)cc3c2=O)cc1F` [Example 203, 3-(3-fluoro-4-methoxyphenyl)-2-(1-methyl-1H-imidazol-2-yl)-8-(6-methylpyridin-3-yl)-4-oxo-3,4-dihydroquinazoline-6-carbonitrile], the EC50 (VEEV TC83) is reported as 51 to 150 nM and the EC50 (WEEV California) is reported as 151 to 500 nM.

For `COc1ccc(-n2c([C@H]3CCCN3C)nc3c(-c4ccoc4)cc(C#N)cc3c2=O)cc1F` [Example 115, (R)-3-(3-fluoro-4-methoxyphenyl)-8-(furan-3-yl)-2-(1-methylpyrrolidin-2-yl)-4-oxo-3,4-dihydroquinazoline-6-carbonitrile], the EC50 (VEEV TC83) was 1 to 50 nM and the EC50 (WEEV California) was 1 to 50 nM.

Molecule `COc1ccc(-n2c(C3CCCN3)nc3c(-c4ccc(C#N)nc4)cc(C#N)cc3c2=O)cc1F` (centres unmarked) [Example 126, 8-(6-cyanopyridin-3-yl)-3-(3-fluoro-4-methoxyphenyl)-4-oxo-2-(pyrrolidin-2-yl)-3,4-dihydroquinazoline-6-carbonitrile] has an EC50 (VEEV TC83) of 1 to 50 nM and an EC50 (WEEV California) of 51 to 150 nM.

In the case of `N#Cc1ccc(-n2c([C@H]3CCCN3)nc3ccc([N+](=O)[O-])cc3c2=O)cc1` [Example 20, (R)-4-(6-nitro-4-oxo-2-(pyrrolidin-2-yl)quinazolin-3 (4H)-yl)benzonitrile], the EC50 (VEEV TC83) is reported as 1 to 50 nM and the EC50 (WEEV California) is reported as 51 to 150 nM.

In the case of `COc1ccc(-c2cc(C#N)cc3c(=O)n(-c4ccc(OC)c(F)c4)c(C4CCCN4)nc23)cc1F` (centres unmarked) [Example 149, 3,8-Bis(3-fluoro-4-methoxyphenyl)-4-oxo-2-(pyrrolidin-2-yl)-3,4-dihydroquinazoline-6-carbonitrile], the EC50 (VEEV TC83) is reported as 1 to 50 nM and the EC50 (WEEV California) is reported as 1 to 50 nM.
